Source: PubChem BioAssay AID434957 (The Scripps Research Institute Molecular Screening Center, 2010)
Calls of active or inactive are those of the source.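 The calls were made as follows: active = IC50, the dose halving KLF5 reporter signal, at most 10 µM; inactive = IC50 above 10 µM or none.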

System: DLD-1 KLF5 promoter luciferase reporter, luminescence
Experiment: KLF5 luciferase suppression by analogs – luminescence, DLD-1 cells, round 1, SAR follow-up (AID 434957)

| IC50 | Compound |
| --- | --- |
| 0.229 µM | Cc1cccc(NC(=O)CCc2nc(-c3ccc(C(C)(C)C)cc3)no2)c1 |
| 0.0562 µM | CCNC(=O)c1ccc2nc(Nc3nc4ccc(F)cc4s3)sc2c1 |
| 4.56 µM | CC(C)(C)C(=O)Nc1ccc2nn(-c3ccc(F)cc3)nc2c1 |
| 0.116 µM | CC(C)(C)c1ccc(-c2noc(CCC(=O)Nc3ccccc3)n2)cc1 |
| 7.96 µM | O=C(Cc1ccccc1)Nc1cc2nn(-c3ccccc3)nc2cc1Cl |
| > 39.8 µM (inactive) | CC(=O)c1sc(NC(=O)c2ccc3ncsc3c2)nc1C |
| > 39.8 µM (inactive) | O=C(COc1ccccc1)Nc1ccc2nn(-c3cccc(Cl)c3)nc2c1 |
| > 39.8 µM (inactive) | Nc1cc2nn(-c3ccccc3)nc2cc1Cl |
| > 39.8 µM (inactive) | CC(NC(=O)c1ccccc1)c1nc(-c2ccc(C(C)(C)C)cc2)no1 (stereo unspecified) |
| > 39.8 µM (inactive) | CC(C)c1ccc2nc(Nc3nc4ccc(F)cc4s3)sc2c1 |
| 0.806 µM | CC(C)(C)c1ccc(-c2noc(CCCC(=O)Nc3ccccc3Cl)n2)cc1 |
| 3.18 µM | CC(C)(C)C(=O)Nc1ccc2nn(-c3ccccc3)nc2c1 |
| > 39.8 µM (inactive) | COc1ccc2nc(Nc3nc4ccc(F)cc4s3)sc2c1 |
| > 39.8 µM (inactive) | COc1ccc(-n2nc3ccc(NC(=O)C4CCN(S(=O)(=O)c5ccc(Cl)cc5)CC4)cc3n2)cc1 |
| 0.107 µM | CC(C)(C)c1ccc(-c2noc(CCC(=O)Nc3ccncc3)n2)cc1 |
| 0.285 µM | CCOc1ccc(NC(=O)CCc2nc(-c3ccc(C(C)(C)C)cc3)no2)cc1 |
| > 39.8 µM (inactive) | COc1ccc(-n2nc3cc(C)c(NC(=O)C(C)C)cc3n2)cc1 |
| 0.0131 µM | CN(C)C(=O)c1ccc2nc(Nc3nc4ccc(F)cc4s3)sc2c1 |

| IC50 | Compound |
| --- | --- |
| 19.4 µM (inactive) | CC(C)(C)c1ccc(-c2coc(CCC(=O)Nc3ccccn3)n2)cc1 |
| > 39.8 µM (inactive) | O=C(Nc1cc2nn(-c3ccccc3)nc2cc1Cl)C1COc2ccccc2C1 (stereo unspecified) |
| > 39.8 µM (inactive) | CC(=O)Nc1ccc2nc(Nc3nc4ccc(F)cc4s3)sc2c1 |
| > 39.8 µM (inactive) | CCOc1ccc2nc(Nc3nc4ccc(F)cc4s3)sc2c1 |
| > 39.8 µM (inactive) | Cc1ccc(OCC(=O)Nc2ccc3nn(-c4cccc(C(F)(F)F)c4)nc3c2)cc1C |
| > 39.8 µM (inactive) | CS(=O)(=O)c1ccc2nc(Nc3nc4ccc(F)cc4s3)sc2c1 |
| 26.3 µM (inactive) | CC(C)C(=O)Nc1ccc2nn(-c3ccc(Cl)cc3)nc2c1 |
| > 39.8 µM (inactive) | CC1(C)CC(=O)c2sc(NC(=O)c3ccc4ncsc4c3)nc2C1 |
| > 39.8 µM (inactive) | CCNC(=O)c1sc(NC(=O)c2ccc3ncsc3c2)nc1C |
| 0.159 µM | CC(C)(C)c1ccc(-c2noc(CCC(=O)Nc3ccccn3)n2)cc1 |
| 0.267 µM | CC(C)(C)c1ccc(-c2noc(CCC(=O)Nc3ccc(N4CCOCC4)nc3)n2)cc1 |
| > 39.8 µM (inactive) | Cc1ccc(-n2nc3cc(Cl)c(NC(=O)c4cccnc4)cc3n2)cc1 |
| > 39.8 µM (inactive) | CC(C)(C)c1ccc(-c2noc(CCc3nc4ccccc4[nH]3)n2)cc1 |
| > 39.8 µM (inactive) | CC(=O)c1sc(NC(=O)c2ccc3ncsc3c2)nc1-c1ccccc1 |
| > 39.8 µM (inactive) | Cc1ccc(-n2nc3ccc(NC(=O)COc4ccc(C)c(C)c4)cc3n2)cc1 |
| > 39.8 µM (inactive) | COc1ccc(-n2nc3ccc(NC(=O)C(C)(C)C)cc3n2)cc1 |
| > 39.8 µM (inactive) | Cc1nc(NC(=O)c2ccc3ncsc3c2)sc1C(=O)N(C)C |
| 3.57 µM | CC(C)(C)c1ccc(-c2noc(CCC(=O)NCc3ccccc3)n2)cc1 |
